The source of these data is patent publication US20250374926A1, “NOVEL DERIVATIVES OF NON-CODED AMINO ACIDS AND THEIR USE IN CROP PROTECTION” (FORTEPHEST LTD., priority 2022, published 2025).

Counter-ions that a name gives are not always drawn.

One test has as its system Lettuce seeds. In words: Filter paper bioassay on germination and early development of Lettuce seeds. Format: in vivo. The following applies: 144 h, lowest concentration causing malformation of radicle or shoots; visually assessed six days after beginning; 0 to 1 mmol/l; read-out: MEC, score (Minimal Effective Concentration, activity score) (converted). As to the method:
Materials: Seeds of Lettuce R. (Super-Jericho, non-sterilized) were obtained from Ben Shahar Moshe Ltd., 99% purity. The test compounds listed in Table 3 below were synthesized de novo or purchased from different vendors. Bioassays: Filter Paper Bioassays with Lettuce seeds were performed following Bertin et al. 2009 with modifications as described below. Seeds were placed on Whatman no. 1 filter paper (Whatman, Middlesex, U.K.) in Petri dishes (10 seeds per plate) with 2.0 ml of an aqueous solution of test material in a concentration ranging from 0 (control) to 1 mmol/l. The Petri dishes were arranged in a tray tilted at a 45-degree angle and were kept in the dark for 48 hours. Then trays with plates were transferred to the growth chamber with a 6/18 dark/light cycle for four days. Each experiment was performed in at least two repeats.
The development of plants' radicles and shoots was visually assessed six days after the beginning of the test to determine the Minimal Effective Concentration (MEC) of a test material. In the context of the invention, MEC is defined as the lowest concentration level of a test material that caused deviation (malformation of radicle or shoots).
With `O=C(O)CSc1cccc(Br)n1` [compound 6688, [(6-bromopyridin-2-yl)sulfanyl]acetic acid], the minimal effective concentration was 1 µM.

Regarding `CCCCOC(=O)CSc1ccc(Br)c(Br)n1` [compound 6700, butyl [(5,6-dibromopyridin-2-yl)sulfanyl]acetate], the minimal effective concentration was 1 µM.

As to `O=C(O)CSc1ccc(F)c(Br)n1` [compound 7151, [(6-bromo-5-fluoropyridin-2-yl)sulfanyl]acetic acid], the minimal effective concentration is less than 1 µM.

In the case of `CCOC(=O)CSc1nc(Cl)sc1Cl` [compound 7119, ethyl 2-[(2,5-dichloro-1,3-thiazol-4-yl)sulfanyl]acetate], the minimal effective concentration was 10 µM.

For the compound `CCOC(=O)Cc1ccc(F)c(Br)n1` [compound 7117, ethyl (6-bromo-5-fluoropyridin-2-yl)acetate], the minimal effective concentration was 10 µM.

For `CCOC(=O)c1c[nH]cc1CC#N` [compound 7131, ethyl 4-(cyanomethyl)-1H-pyrrole-3-carboxylate], the minimal effective concentration is 10 µM.

In the case of `O=C(O)CCCCSc1ccc(Br)c(Br)n1` [compound 7187, 5-[(5,6-dibromopyridin-2-yl)sulfanyl]pentanoic acid], the minimal effective concentration is 1 µM.

Regarding `O=C(O)CNc1cccc(Br)n1` [compound 6702, 2-[(6-bromopyridin-2-yl)amino]acetic acid], the minimal effective concentration is 1 µM.

Regarding `O=C(O)CC#Cc1nc(Cl)sc1Cl` [compound 7145, 4-(2,5-dichloro-1,3-thiazol-4-yl)but-3-ynoic acid], the minimal effective concentration is 1 µM.

In the case of `CCOC(=O)CSc1cccc(Br)n1` [compound 6693, ethyl [(6-bromopyridin-2-yl)sulfanyl]acetate], the minimal effective concentration was 1 µM.

For `O=C(O)CCCCNc1ccc(F)c(Br)n1` [compound 7165, 5-[(6-bromo-5-fluoropyridin-2-yl)amino]pentanoic acid], the minimal effective concentration was 10 µM.

Turning to `CC(Sc1ccc(Br)c(Br)n1)C(=O)O` (stereo not drawn) [compound 7182, 2-[(5,6-dibromopyridin-2-yl)sulfanyl]propanoic acid], the minimal effective concentration is 10 µM.

In the case of `O=C(O)c1csc(Cl)n1` [compound 7194, 2-chloro-1,3-thiazole-4-carboxylic acid], the minimal effective concentration is 100 µM.

Consider `O=C(O)CSc1nc(Cl)cs1` [compound 7109, 2-[(4-chloro-1,3-thiazol-2-yl)sulfanyl]acetic acid], for which the minimal effective concentration was 10 µM.

As to `O=C(O)CNc1c(Cl)csc1Cl` [compound 7147, 2-[(2,4-dichlorothiophen-3-yl)amino]acetic acid hydrochloride], the minimal effective concentration was 10 µM.

`CCOC(=O)CSc1nc(Br)ccc1F` [compound 7160, ethyl 2-[(6-bromo-3-fluoropyridin-2-yl)sulfanyl]acetate]: the minimal effective concentration was less than 1 µM.

For the compound `O=C(O)CCSc1ccc(Br)c(Br)n1` [compound 7178, 3-[(5,6-dibromopyridin-2-yl)sulfanyl]propanoic acid], the minimal effective concentration was 1 µM.

For `COC(=O)Cc1ncsc1C#N` [compound 7168, methyl 2-(5-cyano-1,3-thiazol-4-yl)acetate], the minimal effective concentration was 10 µM.

On to `CCOC(=O)CSc1csc(Cl)n1` [compound 5850, ethyl 2-[(2-chloro-1,3-thiazol-4-yl)sulfanyl]acetate], for which the minimal effective concentration was 10 µM.

As to `CCOC(=O)C(Cl)(Cl)c1csc(Cl)n1` [compound 7188, ethyl dichloro(2-chloro-1,3-thiazol-4-yl)acetate], the minimal effective concentration was 100 µM.

With `O=C(O)CNc1nc(Cl)cs1` [compound 7125, 2-[(4-chloro-1,3-thiazol-2-yl)amino]acetic acid], the minimal effective concentration is 10 µM.

In the case of `O=C(O)CNc1ccc(Br)c(Br)n1` [compound 7122, 2-[(5,6-dibromopyridin-2-yl)amino]acetic acid], the minimal effective concentration was 1 µM.

Take `O=C(O)CNc1nc(Br)c(Br)cc1F` [compound 7169, 2-[(5,6-dibromo-3-fluoropyridin-2-yl)amino]acetic acid]: the minimal effective concentration is 1 µM.

On to `CCCCOC(=O)CSc1nc(Cl)ccc1Br` [compound 6694, butyl [(3-bromo-6-chloropyridin-2-yl)sulfanyl]acetate], for which the minimal effective concentration was 1 µM.

`CCCCCCCCOC(=O)CSc1cccc(Br)n1` [compound 7106, octyl [(6-bromopyridin-2-yl)sulfanyl]acetate]: the minimal effective concentration is 10 µM.

As to `O=C(O)CNc1ccc(F)c(Br)n1` [compound 7148, 2-[(6-bromo-5-fluoropyridin-2-yl)amino]acetic acid], the minimal effective concentration is 10 µM.

On to `COC(=O)Cc1nc(Cl)sc1C#N` [compound 7167, methyl 2-(2-chloro-5-cyano-1,3-thiazol-4-yl)acetate], for which the minimal effective concentration was 10 µM.

In the case of `CCOC(=O)Sc1csc(Cl)n1` [compound 7189, S-(2-chloro-1,3-thiazol-4-yl) O-ethyl carbonothioate], the minimal effective concentration is 10 µM.

Regarding `O=C(O)CSc1nc(Br)ccc1Br` [compound 7124, [(3,6-dibromopyridin-2-yl)sulfanyl]acetic acid], the minimal effective concentration was 1 µM.

As for `NCCCCNc1ccc(Br)c(Br)n1` [compound 6709, N1-(5,6-dibromopyridin-2-yl)butane-1,4-diamine], the minimal effective concentration was 10 µM.

As to `O=C(O)CS(=O)(=O)c1nc(Cl)sc1Cl` [compound 7138, (2,5-dichloro-1,3-thiazol-4-sulfonyl)acetic acid], the minimal effective concentration is 10 µM.

On to `CCCCOC(=O)C[S+]([O-])c1ccc(Br)c(Br)n1` (stereo not drawn) [compound 6703, butyl (5,6-dibromopyridine-2-sulfinyl)acetate], for which the minimal effective concentration was 10 µM.

In the case of `O=C(Cc1ccccc1)NCCCNc1cccc(Br)n1` [compound 7121, N-{3-[(6-bromopyridin-2-yl)amino]propyl}-2-phenylacetamide], the minimal effective concentration is 10 µM.

Turning to `CCOC(=O)CSc1nc(Cl)cs1` [compound 7112, ethyl [(4-chloro-1,3-thiazol-2-yl)sulfanyl]acetate], the minimal effective concentration is 10 µM.

In the case of `CCOCCOCCOC(=O)COc1ccc(Br)c(Br)n1` [compound 7172, 2-(2-ethoxyethoxy)ethyl [(5,6-dibromopyridin-2-yl)oxy]acetate], the minimal effective concentration was 1 µM.

On to `O=C(O)CCCCNc1nc(Br)c(Br)cc1F` [compound 7170, 5-[(5,6-dibromo-3-fluoropyridin-2-yl)amino]pentanoic acid], for which the minimal effective concentration was 1 µM.

`O=C(O)C[S+]([O-])c1nc(Cl)sc1Cl` (stereo not drawn) [compound 7137, (2,5-dichloro-1,3-thiazole-4-sulfinyl)acetic acid]: the minimal effective concentration was 10 µM.

Consider `CCOCCOCCOC(=O)CSc1ccc(Br)c(Br)n1` [compound 7139, 2-(2-ethoxyethoxy)ethyl [(5,6-dibromopyridin-2-yl)sulfanyl]acetate], for which the minimal effective concentration was 1 µM.

The same test, now with this note: lowest concentration causing malformation of radicle or shoots; visually assessed six days after beginning; 0 to 1 mmol/l.
For the compound `O=C(Cc1ccccc1)NCCCCNc1cccc(Br)n1` [compound 7123, N-{4-[(6-bromopyridin-2-y1)amino]butyl}-2-phenylacetamide], the activity score is given as 4 (0.01 mM).
